Assay results taken from patent US4778816A, “Anti-asthmatic composition and process for preparing the same” (Wakamoto Pharmaceutical Co., Ltd., priority 1984, dated 1988).

Experiments:
release of histamine [1] = assay: Inhibitory effect on the release of histamine from rhesus monkey lung slices (Test Example 2); type: cell-based; conditions: average of three measurements
Description: (§1) Inhibitory effect of MTB on the release of histamine and SRS-A from rhesus monkey lung slices
(§2) Rhesus monkey lungs were cut into slices, which were passively sensitized with human atopy blood serum.
(§3) Thereafter the test was conducted in the same manner as in Test Example 1 to compare the histamine and SRS-A release-inhibition effect of the present medicine MTB with that of the known medicine DSCG.

release of SRS-A [2] = assay: Inhibitory effect on the release of SRS-A from human lung slices (Test Example 3); type: cell-based; conditions: average of three measurements
Description: (§4) Inhibitory effect of MTB on the release of histamine and SRS-A from human lung slices
(§5) A macrographically normal portion was sampled from a human lung excised in a lung cancer operation and was passively sensitized with human atopy blood serum in a similar manner to the case of the rhesus monkey lung slices mentioned above. Thereafter the histamine and SRS-A release-inhibiting effect of the test medicines was measured in the same manner as in Test Example 1.

release of histamine [3] = assay: Inhibitory effect on the release of histamine from human lung slices (Test Example 3); type: cell-based; conditions: average of three measurements
Description: as §4, §5

release of SRS-A [4] = assay: Inhibitory effect on the release of SRS-A from guinea pig lung slices (Test Example 1); type: cell-based; conditions: for SRS-A release-inhibition rate: average of three measurements
release of SRS-A [5] = assay: Inhibitory effect on the release of SRS-A from rhesus monkey lung slices (Test Example 2); type: cell-based; conditions: average of three measurements
Description: as §1, §2, §3

release of histamine [6] = assay: Inhibitory effect on the release of histamine from guinea pig lung slices (Test Example 1); type: cell-based; conditions: for Histamine release-inhibition rate: average of three measurements
release of histamine [7] = conditions: Japanese Journal of Pharmacology, Vol. 32, pages 689-697, 1982; cited from earlier work
Acute toxicity in dog = type: in vivo, Dog (beagle); conditions: in vivo, po; dog male, p.o.; read-out: Acute toxicity LD 50
From the text: (§6) Animals tested were as follows.
(§7) Dog: beagle, weight 8 kg, 3 dogs per group

Dog = assay: Acute toxicity in dog; type: in vivo, Dog (beagle); conditions: dog female, p.o.
From the text: as §6, §7

[8] = Solubility of MTB original powder in water; type: physicochemical
Acute toxicity in mouse = assay: Acute toxicity in mouse; parameters: species or system Mouse (ddy); conditions: in vivo, read-out: Acute toxicity LD 50
From the text: as §6
Mouse: ddy, weight 20-23 g, 20 mice per group

Acute toxicity in rat = assay: Acute toxicity in rat; parameters: species or system Rat (wistar); conditions: in vivo, read-out: Acute toxicity LD 50
From the text: as §6
Rat: wistar, weight 110-130 g 10 rats per group

experimental asthma = assay: Effect of preventing experimental asthma (Test Example 4); type: in vivo, guinea pig; conditions: 250 mg/kg oral; for Tidal volume-decrease rate: 60 min before causing asthma, average of seven
[9] = Differential thermal scanning calorimeter measurement of crystal structure; type: physicochemical; conditions: DSC 30 type, Shimadzu
From the text: From this observation, it has been confirmed that the treatment with the non-aqueous solvent in the new preparation process not only increases the mixing efficiency but also brings about a change in the crystal structure itself of MTB.

Structure (SMILES): O=C(O)c1cc(=O)c2c(OCC(O)COc3cccc4oc(C(=O)O)cc(=O)c34)cccc2o1 [DSCG, disodium cromoglicate, reference compound]
- Histamine release-inhibition rate (release of histamine [1]; 10^-4 g/ml): 0%
- Histamine release-inhibition rate (release of histamine [1]; 10^-5 g/ml): 0%
- SRS-A release-inhibition rate (release of SRS-A [2]; 10^-4 g/ml): 39%
- SRS-A release-inhibition rate (release of SRS-A [2]; 10^-5 g/ml): 41%
- Histamine release-inhibition rate (release of histamine [3]; 10^-4 g/ml): 18%
- Histamine release-inhibition rate (release of histamine [3]; 10^-5 g/ml): 13%
- SRS-A release-inhibition rate (release of SRS-A [4]; 10^-4 g/ml): 13%
- SRS-A release-inhibition rate (release of SRS-A [4]; 10^-5 g/ml): 9%
- SRS-A release-inhibition rate (release of SRS-A [5]; 10^-4 g/ml): 2%
- SRS-A release-inhibition rate (release of SRS-A [5]; 10^-5 g/ml): 0%
- Histamine release-inhibition rate (release of histamine [6]; 10^-4 g/ml): 2%
- Histamine release-inhibition rate (release of histamine [6]; 10^-5 g/ml): 0%

Structure (SMILES): CCCCOC(=O)C(=O)Nc1cccc(-c2nnn[nH]2)c1 [MTB, 5-(3-n-butyloxalyl-aminophenyl) tetrazole]
- anti-allergic action (in words) (release of histamine [7]): anti-allergic action, inhibiting the release of histamine
- LD50 (Acute toxicity in dog): > 4000 mg/kg
- Acute toxicity LD 50 (Dog): > 4000 mg/kg
- Histamine release-inhibition rate (release of histamine [1]; 10^-4 g/ml): 27%
- Histamine release-inhibition rate (release of histamine [1]; 10^-5 g/ml): 2%
- Histamine release-inhibition rate (release of histamine [1]; 10^-6 g/ml): 12%
- Histamine release-inhibition rate (release of histamine [1]; 10^-7 g/ml): 0%
- solubility in water (in words) [8]: practically insoluble in water
- SRS-A release-inhibition rate (release of SRS-A [2]; 10^-4 g/ml): 47%
- SRS-A release-inhibition rate (release of SRS-A [2]; 10^-5 g/ml): 47%
- SRS-A release-inhibition rate (release of SRS-A [2]; 10^-6 g/ml): 43%
- SRS-A release-inhibition rate (release of SRS-A [2]; 10^-7 g/ml): 31%
- SRS-A release-inhibition rate (release of SRS-A [2]; 10^-8 g/ml): 2%
- Histamine release-inhibition rate (release of histamine [3]; 10^-4 g/ml): 27%
- Histamine release-inhibition rate (release of histamine [3]; 10^-5 g/ml): 23%
- Histamine release-inhibition rate (release of histamine [3]; 10^-6 g/ml): 23%
- Histamine release-inhibition rate (release of histamine [3]; 10^-7 g/ml): 8%
- Histamine release-inhibition rate (release of histamine [3]; 10^-8 g/ml): 0%
- LD50 (Acute toxicity in mouse; ip, mouse female, i.p.): 1160 mg/kg
- LD50 (Acute toxicity in mouse; ip, mouse male, i.p.): 1120 mg/kg
- LD50 (Acute toxicity in mouse; iv, mouse female, i.v.): 1220 mg/kg
- LD50 (Acute toxicity in mouse; iv, mouse male, i.v.): 1130 mg/kg
- LD50 (Acute toxicity in mouse; po, mouse female, p.o.): > 4000 mg/kg
- LD50 (Acute toxicity in mouse; po, mouse male, p.o.): > 4000 mg/kg
- LD50 (Acute toxicity in mouse; sc, mouse female, s.c.): > 4000 mg/kg
- LD50 (Acute toxicity in mouse; sc, mouse male, s.c.): > 4000 mg/kg
- SRS-A release-inhibition rate compared with DSCG and N-5' (in words) (release of SRS-A [4]): remarkably high
- SRS-A release-inhibition rate (release of SRS-A [4]; 10^-4 g/ml): 64%
- SRS-A release-inhibition rate (release of SRS-A [4]; 10^-5 g/ml): 66%
- SRS-A release-inhibition rate (release of SRS-A [4]; 10^-6 g/ml): 49%
- SRS-A release-inhibition rate (release of SRS-A [4]; 10^-7 g/ml): 28%
- SRS-A release-inhibition rate (release of SRS-A [4]; 10^-8 g/ml): 2%
- LD50 (Acute toxicity in rat; ip, rat female, i.p.): 1430 mg/kg
- LD50 (Acute toxicity in rat; ip, rat male, i.p.): 1430 mg/kg
- LD50 (Acute toxicity in rat; iv, rat female, i.v.): 1160 mg/kg
- LD50 (Acute toxicity in rat; iv, rat male, i.v.): 1110 mg/kg
- LD50 (Acute toxicity in rat; po, rat female, p.o.): > 4000 mg/kg
- LD50 (Acute toxicity in rat; po, rat male, p.o.): > 4000 mg/kg
- LD50 (Acute toxicity in rat; sc, rat female, s.c.): > 4000 mg/kg
- LD50 (Acute toxicity in rat; sc, rat male, s.c.): > 4000 mg/kg
- SRS-A release-inhibition rate (release of SRS-A [5]; 10^-4 g/ml): 16%
- SRS-A release-inhibition rate (release of SRS-A [5]; 10^-5 g/ml): 17%
- SRS-A release-inhibition rate (release of SRS-A [5]; 10^-6 g/ml): 18%
- SRS-A release-inhibition rate (release of SRS-A [5]; 10^-7 g/ml): 0%
- Tidal volume-decrease rate (experimental asthma; 0 min): 0%
- decrease in unit tidal volume compared with control and N-5' (in words) (experimental asthma): remarkably low rate of decrease in unit tidal volume
- Tidal volume-decrease rate (experimental asthma; 1 min): 17%
- Tidal volume-decrease rate (experimental asthma; 2 min): 17%
- Tidal volume-decrease rate (experimental asthma; 3 min): 21%
- Tidal volume-decrease rate (experimental asthma; 4 min): 23%
- Tidal volume-decrease rate (experimental asthma; 5 min): 21%
- Tidal volume-decrease rate (experimental asthma; 6 min): 22%
- Tidal volume-decrease rate (experimental asthma; 8 min): 21%
- Tidal volume-decrease rate (experimental asthma; 10 min): 21%
- Tidal volume-decrease rate (experimental asthma; 15 min): 14%
- Tidal volume-decrease rate (experimental asthma; 20 min): 19%
- Tidal volume-decrease rate (experimental asthma; 30 min): 15%
- peak of absorption indicating the crystal structure (DSC) [9]: shows a peak of absorption indicating the crystal structure
- histamine release-inhibition rate compared with DSCG and N-5' (in words) (release of histamine [6]): remarkably high
- Histamine release-inhibition rate (release of histamine [6]; 10^-4 g/ml): 37%
- Histamine release-inhibition rate (release of histamine [6]; 10^-5 g/ml): 30%
- Histamine release-inhibition rate (release of histamine [6]; 10^-6 g/ml): 14%
- Histamine release-inhibition rate (release of histamine [6]; 10^-7 g/ml): 6%
- Histamine release-inhibition rate (release of histamine [6]; 10^-8 g/ml): 8%

Structure (SMILES): COc1ccc(/C=C/C(=O)Nc2ccccc2C(=O)O)cc1OC [N-5', tranilast, reference compound]
- SRS-A release-inhibition rate (release of SRS-A [2]; 10^-4 g/ml): 37%
- SRS-A release-inhibition rate (release of SRS-A [2]; 10^-5 g/ml): 32%
- Histamine release-inhibition rate (release of histamine [3]; 10^-4 g/ml): 31%
- Histamine release-inhibition rate (release of histamine [3]; 10^-5 g/ml): 16%
- SRS-A release-inhibition rate (release of SRS-A [4]; 10^-4 g/ml): 54%
- SRS-A release-inhibition rate (release of SRS-A [4]; 10^-5 g/ml): 11%
- Tidal volume-decrease rate (experimental asthma; 0 min): 0%
- Tidal volume-decrease rate (experimental asthma; 1 min): 26%
- Tidal volume-decrease rate (experimental asthma; 2 min): 24%
- Tidal volume-decrease rate (experimental asthma; 3 min): 24%
- Tidal volume-decrease rate (experimental asthma; 4 min): 26%
- Tidal volume-decrease rate (experimental asthma; 5 min): 23%
- Tidal volume-decrease rate (experimental asthma; 6 min): 25%
- Tidal volume-decrease rate (experimental asthma; 8 min): 28%
- Tidal volume-decrease rate (experimental asthma; 10 min): 24%
- Tidal volume-decrease rate (experimental asthma; 15 min): 27%
- Tidal volume-decrease rate (experimental asthma; 20 min): 22%
- Tidal volume-decrease rate (experimental asthma; 30 min): 19%
- Histamine release-inhibition rate (release of histamine [6]; 10^-4 g/ml): 16%
- Histamine release-inhibition rate (release of histamine [6]; 10^-5 g/ml): 5%
